Assay results as given in ChEMBL document CHEMBL1137802, “Specific antioxidant activity of caffeoyl derivatives and other natural phenolic compounds: LDL protection against oxidation and decrease in the proinflammatory lysophosphatidylcholine production” (J Nat Prod, 2001).

Experiments:
Format in all cases: functional, cell-free
[1] = Antioxidant activity against Cu2+-induced lipid peroxidation in human plasma LDL assessed as conjugated diene formation at 10 umol/L preincubated for 1 hr before Cu2+ challenge measured after 180 mins
[2] = Antioxidant activity against Cu2+-induced lipid peroxidation in human plasma LDL assessed as vitamin E consumption at 5 umol/L preincubated for 1 hr before Cu2+ challenge measured after 180 mins
[3] = Antioxidant activity against Cu2+-induced lipid peroxidation in human plasma LDL assessed as vitamin E consumption at 20 umol/L preincubated for 1 hr before Cu2+ challenge measured after 45 mins
[4] = Antioxidant activity against Cu2+-induced lipid peroxidation in human plasma LDL assessed as vitamin E consumption at 10 umol/L preincubated for 1 hr before Cu2+ challenge measured after 120 mins
[5] = Antioxidant activity against Cu2+-induced lipid peroxidation in human plasma LDL assessed as lysophosphatidylcholine formation at 20 umol/L preincubated for 1 hr before Cu2+ challenge measured after 270 mins
[6] = Antioxidant activity against Cu2+-induced lipid peroxidation in human plasma LDL assessed as vitamin E consumption at 10 umol/L preincubated for 1 hr before Cu2+ challenge measured after 180 mins
[7] = Antioxidant activity against Cu2+-induced lipid peroxidation in human plasma LDL assessed as lysophosphatidylcholine formation at 5 umol/L preincubated for 1 hr before Cu2+ challenge measured after 270 mins
[8] = Antioxidant activity against Cu2+-induced lipid peroxidation in human plasma LDL assessed as conjugated diene formation at 20 umol/L preincubated for 1 hr before Cu2+ challenge measured after 120 mins

Structure (SMILES): CC(C)(Sc1cc(C(C)(C)C)c(O)c(C(C)(C)C)c1)Sc1cc(C(C)(C)C)c(O)c(C(C)(C)C)c1
- Activity [1]: 77.3%
- Activity [2]: 0%
- Activity [3]: 7.5%
- Activity [4]: 0%
- Activity [5]: 1.5%
- Activity [6]: 0%
- Activity [7]: 26.1%
- Activity [8]: 0.2%
